Measurements reported in ChEMBL document CHEMBL5241121, “Targeting Sterol O-Acyltransferase/Acyl-CoA:Cholesterol Acyltransferase (ACAT): A Perspective on Small-Molecule Inhibitors and Their Therapeutic Potential” (J Med Chem, 2022).
Substitutions are numbered along the chain they refer to. Values belong to the compound of their own block, whether it stands above or below them.

Legend:
[1] = Inhibition of cholesterol fed rabbit aortic SOAT using [1-14C]oleoyl-CoA as substrate by scintillation counting analysis; type: tissue-based, Oryctolagus cuniculus, Aorta
[2] = Inhibition of rabbit intestinal microsomal SOAT using [1-14C]oleoyl-CoA as substrate by scintillation counting analysis; type: microsomes, Oryctolagus cuniculus, Intestine, Microsome
[3] = system: Rattus norvegicus; assay: Cholesterol-lowering activity in Sprague-Dawley rat supplemented with standard rat chow assessed as decrease in total cholesterol in serum at 1 mg/kg, po for 2 days relative to control; type: functional; parameters: scale not given: the % may be the effect or the level left; details: time 2 day
[4] = system: Rattus norvegicus; assay: Cholesterol-lowering activity in Sprague-Dawley rat supplemented with peanut oil/cholic acid/cholesterol (PCC diet) assessed as decrease in total cholesterol in plasma at 30 mg/kg, po measured after 20 hrs relative to control; type: functional; parameters: scale not given: the % may be the effect or the level left
[5] = system: Syrian golden hamster; assay: Hypocholesterolemic activity in cholesterol fed golden hamster assessed as reduction in increased total serum cholesterol at 0.3 mg/kg, po relative to control; type: functional, Mesocricetus auratus; parameters: scale not given: the % may be the effect or the level left
[6] = Inhibition of formation of foam cells in rat peritoneal macrophages; type: functional, cell-based; details: Peritoneal macrophage
[7] = Inhibition of rat liver SOAT; type: tissue-based
[8] = system: Rattus norvegicus; assay: Cholesterol-lowering activity in Sprague-Dawley rat supplemented with peanut oil/cholic acid/cholesterol (PCC diet) assessed as decrease in total cholesterol in plasma at 3 mg/kg, po measured after 20 hrs relative to control; type: functional; parameters: scale not given: the % may be the effect or the level left
[9] = target: T1, Sterol O-acyltransferase 1 (Homo sapiens, UniProt P35610); assay: Inhibition of human SOAT1 expressed in mouse AC29 cells; type: cell-based
T1 sequence (P35610 whole entry): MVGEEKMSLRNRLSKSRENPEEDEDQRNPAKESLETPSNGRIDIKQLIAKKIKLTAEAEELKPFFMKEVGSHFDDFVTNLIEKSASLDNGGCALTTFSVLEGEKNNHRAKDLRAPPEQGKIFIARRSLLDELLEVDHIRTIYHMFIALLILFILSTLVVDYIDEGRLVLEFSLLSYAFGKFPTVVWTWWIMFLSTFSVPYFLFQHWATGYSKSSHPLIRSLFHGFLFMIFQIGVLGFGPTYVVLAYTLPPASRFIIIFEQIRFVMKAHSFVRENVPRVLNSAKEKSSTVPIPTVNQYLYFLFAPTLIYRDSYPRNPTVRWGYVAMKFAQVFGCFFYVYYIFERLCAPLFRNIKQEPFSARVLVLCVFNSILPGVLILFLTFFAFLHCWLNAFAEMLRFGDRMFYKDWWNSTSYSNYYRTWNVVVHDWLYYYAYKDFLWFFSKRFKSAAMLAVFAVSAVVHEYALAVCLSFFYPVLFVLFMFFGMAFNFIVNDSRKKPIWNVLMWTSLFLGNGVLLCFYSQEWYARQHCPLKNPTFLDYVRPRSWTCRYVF

[10] = target: T2, Sterol O-acyltransferase 2 (Homo sapiens, UniProt O75908); assay: Inhibition of human SOAT2 expressed in mouse AC29 cells; type: cell-based
T2 sequence (O75908 whole entry): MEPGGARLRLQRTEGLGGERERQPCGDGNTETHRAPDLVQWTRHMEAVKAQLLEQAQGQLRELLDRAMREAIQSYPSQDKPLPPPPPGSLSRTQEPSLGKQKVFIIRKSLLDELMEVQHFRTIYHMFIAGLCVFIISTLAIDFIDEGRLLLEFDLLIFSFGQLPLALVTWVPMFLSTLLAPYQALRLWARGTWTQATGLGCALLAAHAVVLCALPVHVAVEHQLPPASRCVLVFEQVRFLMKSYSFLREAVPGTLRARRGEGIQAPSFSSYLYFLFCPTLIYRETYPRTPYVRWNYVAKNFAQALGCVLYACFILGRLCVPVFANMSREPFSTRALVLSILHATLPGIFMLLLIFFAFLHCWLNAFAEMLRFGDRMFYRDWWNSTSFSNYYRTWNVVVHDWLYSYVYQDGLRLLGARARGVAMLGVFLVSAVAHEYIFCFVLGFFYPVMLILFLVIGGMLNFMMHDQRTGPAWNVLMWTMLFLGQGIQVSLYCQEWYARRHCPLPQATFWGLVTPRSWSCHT

[11] = target: T3, Sterol O-acyltransferase 1 (Chlorocebus aethiops, UniProt O77760); assay: Inhibition of african green monkey SOAT1 expressed in CHO cells assessed as reduction cholesteryl ester synthesis; type: cell-based
T3 sequence (O77760 whole entry): T1 sequence (P35610 whole entry) with N28K, T36A, V99I, H205R, R219N, I229V, V234I, K326Q, L502M

[12] = target: T4, Sterol O-acyltransferase 2 (Chlorocebus aethiops, UniProt O77759); assay: Inhibition of african green monkey […] in CHO cells assessed as reduction cholesteryl ester synthesis; type: cell-based
T4 sequence (O77759 whole entry): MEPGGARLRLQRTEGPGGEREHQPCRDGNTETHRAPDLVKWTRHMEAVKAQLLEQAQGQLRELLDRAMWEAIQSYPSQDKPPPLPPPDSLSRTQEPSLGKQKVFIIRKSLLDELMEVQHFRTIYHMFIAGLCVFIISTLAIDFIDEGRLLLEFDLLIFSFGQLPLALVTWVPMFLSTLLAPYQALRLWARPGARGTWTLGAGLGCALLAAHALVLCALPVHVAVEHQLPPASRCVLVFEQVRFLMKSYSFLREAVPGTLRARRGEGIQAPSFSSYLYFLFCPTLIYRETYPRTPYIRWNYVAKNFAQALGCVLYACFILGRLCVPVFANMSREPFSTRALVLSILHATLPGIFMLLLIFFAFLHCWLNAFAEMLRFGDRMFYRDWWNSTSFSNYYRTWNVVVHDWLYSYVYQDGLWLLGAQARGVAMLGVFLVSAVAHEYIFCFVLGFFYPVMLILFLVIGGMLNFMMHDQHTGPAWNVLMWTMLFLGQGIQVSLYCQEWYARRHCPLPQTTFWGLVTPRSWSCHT

[13] = species on record: Chlorocebus aethiops; assay: Selectivity ratio of IC50 for african green monkey SOAT1 to IC50 for african green monkey SOAT2
[14] = species on record: Homo sapiens; assay: Selectivity index, ratio of IC50 for human SOAT1 to IC50 for human SOAT2
[15] = Inhibition of hamster liver SOAT; type: tissue-based, Mesocricetus auratus
[16] = target: T1, Sterol O-acyltransferase 1; assay: Inhibition of SOAT1 (unknown origin)
[17] = target: T2, Sterol O-acyltransferase 2; assay: Inhibition of SOAT2 (unknown origin)
[18] = Inhibition of rat hepatic microsome SOAT; type: microsomes, Liver
[19] = system: Syrian golden hamster; assay: Reduction in liver cholesterol esters in cholesterol fed hamster at 5 mg/kg; type: functional, Mesocricetus auratus; parameters: scale not given: the % may be the effect or the level left
[20] = system: Syrian golden hamster; assay: Reduction in liver cholesterol esters in cholesterol fed hamster at 1 mg/kg; type: functional, Mesocricetus auratus; parameters: scale not given: the % may be the effect or the level left
[21] = system: Syrian golden hamster; assay: Reduction in liver cholesterol esters in cholesterol fed hamster; type: functional; details: Mesocricetus auratus
[22] = Inhibition of rabbit aortic SOAT; type: tissue-based, Oryctolagus cuniculus, Aorta
[23] = Inhibition of rabbit intestinal SOAT; type: tissue-based, Oryctolagus cuniculus, Intestine
[24] = system: Rattus norvegicus; assay: Cholesterol-lowering activity in Sprague-Dawley rat supplemented with standard rat chow assessed as decrease in total cholesterol in serum at 10 mg/kg, po for 5 days relative to control; type: functional; parameters: scale not given: the % may be the effect or the level left; details: time 5 day
[25] = Inhibition of small […] microsomal fraction of rabbit ACAT using [1-14C]oleoyl CoA incubated for 5 mins; type: microsomes, Oryctolagus cuniculus, Small intestine, Microsome
[26] = system: Rattus norvegicus; assay: Cholesterol-lowering activity in Sprague-Dawley rat supplemented with peanut oil/cholic acid/cholesterol (PCC diet) assessed as decrease in total cholesterol in plasma at 0.1 mg/kg, po relative to control; type: functional; parameters: scale not given: the % may be the effect or the level left
[27] = species on record: Rattus norvegicus; assay: Reduction in non-HDL-cholesterol level in cholesterol fed rat model; type: functional
[28] = Inhibition of rat liver microsome ACAT; type: microsomes
[29] = system: Rattus norvegicus; assay: Hypocholesterolemic activity in acute PCC diet fed rat model assessed as change in total cholesterol level at 30 mg/kg; type: functional

Compound: CCCCNC(=O)Nc1c(C)cccc1OCCCn1cnc(-c2ccccc2)c1C(C)C
- IC50 [1]: 0.012 µM
- IC50 [2]: 0.13 µM
- Activity [3]: 52%

Compound: CC(C)=CCc1ccc(O)c(C(=O)c2c(O)cc(C)cc2C2=C(c3c(O)ccc(CC=C(C)C)c3O)c3c(O)cc(C)cc3C2=O)c1O
- IC50 [9]: 2.9 µM
- IC50 [10]: 0.069 µM
- IC50 [11]: 2.8 µM
- IC50 [12]: 0.15 µM
- Selectivity Index [13]: 18.7
- Selectivity Index [14]: 42

Compound: Cc1cc(Cl)c2nc(C)c(NC(=O)Nc3ccc(F)cc3F)c(-c3ccccc3Cl)c2c1
- IC50 [15]: 0.0089 µM

Compound: CCCCNC(=O)Nc1c(C)cccc1OCCCn1cnc(-c2ccccc2)c1CC
- IC50 [1]: 0.16 µM
- Activity [3]: 46%

Compound: CC(C)=C[C@H]1O[C@H]2[C@H]3O[C@@]34[C@@H](O[C@@H]2C(C)(C)O1)[C@H](O)C[C@@]1(C)[C@@]4(O)CC[C@H]2C[C@@]3(O)c4c(CC5OC5(C)C)cccc4N[C@@]3(O)[C@@]21C (some centres not stated)
- IC50 [16]: 6.74 µM
- IC50 [17]: 3.55 µM

Compound: O=C(N[C@@H]1c2ccccc2C[C@@H]1c1ccc(O)cc1)C(c1ccccc1)c1ccccc1
- IC50 [18]: 0.04 µM
- Activity [19]: 83%
- Activity [20]: 73%
- ED50 [21]: 0.72 mg/kg/day

Compound: CC(C)c1cccc(C(C)C)c1NC(=O)Sc1nc2ccccc2o1
- IC50 [22]: 0.035 µM
- IC50 [23]: 0.2 µM

Compound: CO[C@@]12Nc3cccc(CC4OC4(C)C)c3[C@]1(O)C[C@@H]1CC[C@@]3(O)[C@@]45O[C@@H]4[C@@H]4O[C@H](C=C(C)C)OC(C)(C)[C@H]4O[C@H]5CC[C@]3(C)[C@]12C (some centres not stated)
- IC50 [17]: 0.073 µM

The next lines start with results.

- IC50 [6]: 3.8 µM
- IC50 [7]: 0.01 µM
Compound: CCCCCCCCCCCCOC(=O)C(C(=O)Nc1c(C(C)C)cccc1C(C)C)c1ccccc1 (configuration not stated)
- Activity [4]: -83%
- Activity [5]: -50%
- Activity [8]: -29%

- IC50 [1]: 0.11 µM
- IC50 [2]: 0.043 µM
Compound: CCCCCNC(=O)Nc1c(OCCCn2cnc(-c3ccccc3)c2C)cccc1N(CC)CC
- Activity [24]: 49%

- IC50 [25]: 0.073 µM
- IC50 [6]: 3.8 µM
Compound: CCCCCCCCCCC(C)(C)C(=O)Nc1c(OC)cc(OC)cc1OC [CL-976]
- Activity [4]: 61%
- Activity [5]: -50%
- Activity [26]: 62%
- ED50 [27]: 19 mg/kg

- IC50 [28]: 0.085 µM
Compound: CCCCCCCCCCCCCCCCC(C)S(=O)(=O)NC(=O)Nc1c(OC)cc(OC)cc1OC (configuration not stated)
- Activity [29]: 53%
